US6495683B2, “4-oxo-4,7-dihydro-thieno[2,3-b]pyridine-5-carboxamides as antiviral agents” (Pharmacia and Upjohn Company, priority 1999, dated 2002)
Counter-ions that a name gives are not always drawn. Like-named read-outs stand apart in the source and are kept apart here.

Key:
[1] = target: VZV polymerase (Varicella-zoster virus, UniProt P09252); experiment: biochemical
[2] = target: T1, HCMV polymerase (Human cytomegalovirus, UniProt P08546); experiment: biochemical; details: modified SPA assay: compounds diluted in 100% DMSO, 4.5 mM DTT in polymerase buffer; read-out: polymerase IC50 (μM) HCMV
T1 construct: made in house; host or cells: recombinant baculovirus-infected SF-9 cells
T1 sequence (P08546 whole entry): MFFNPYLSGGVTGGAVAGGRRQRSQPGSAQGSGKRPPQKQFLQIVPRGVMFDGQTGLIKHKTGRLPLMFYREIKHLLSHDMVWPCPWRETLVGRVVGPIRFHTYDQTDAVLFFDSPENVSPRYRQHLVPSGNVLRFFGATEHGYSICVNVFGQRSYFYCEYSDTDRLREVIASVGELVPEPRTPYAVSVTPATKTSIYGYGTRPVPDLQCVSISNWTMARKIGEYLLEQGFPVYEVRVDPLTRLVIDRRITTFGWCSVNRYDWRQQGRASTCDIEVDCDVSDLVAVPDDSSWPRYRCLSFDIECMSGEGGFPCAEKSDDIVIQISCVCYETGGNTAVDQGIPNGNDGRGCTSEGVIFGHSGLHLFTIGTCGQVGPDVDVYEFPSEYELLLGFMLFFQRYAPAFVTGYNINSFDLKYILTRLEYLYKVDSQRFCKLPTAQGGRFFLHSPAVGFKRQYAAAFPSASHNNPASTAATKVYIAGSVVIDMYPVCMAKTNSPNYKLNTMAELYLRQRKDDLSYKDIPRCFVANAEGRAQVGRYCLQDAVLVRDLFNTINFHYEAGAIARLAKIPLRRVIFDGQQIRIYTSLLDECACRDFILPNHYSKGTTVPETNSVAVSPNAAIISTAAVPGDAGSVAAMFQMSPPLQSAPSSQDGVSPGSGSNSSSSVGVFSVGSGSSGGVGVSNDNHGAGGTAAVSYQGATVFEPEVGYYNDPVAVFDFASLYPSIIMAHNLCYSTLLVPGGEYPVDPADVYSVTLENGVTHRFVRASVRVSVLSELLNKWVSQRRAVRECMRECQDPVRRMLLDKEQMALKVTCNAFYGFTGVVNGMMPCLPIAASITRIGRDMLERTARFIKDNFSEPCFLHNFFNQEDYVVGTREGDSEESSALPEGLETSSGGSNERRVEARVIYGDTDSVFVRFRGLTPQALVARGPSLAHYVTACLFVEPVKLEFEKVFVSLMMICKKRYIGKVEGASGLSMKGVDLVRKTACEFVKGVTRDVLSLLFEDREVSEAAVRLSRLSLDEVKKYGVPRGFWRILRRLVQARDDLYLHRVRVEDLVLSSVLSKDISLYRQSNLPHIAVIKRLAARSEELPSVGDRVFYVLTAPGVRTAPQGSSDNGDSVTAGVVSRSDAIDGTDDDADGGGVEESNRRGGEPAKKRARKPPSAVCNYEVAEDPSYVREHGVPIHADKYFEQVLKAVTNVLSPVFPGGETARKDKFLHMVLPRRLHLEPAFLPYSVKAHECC
Method: The HCMV polymerase assay is performed using a scintillation proximity assay (SPA) as described in several references, such as N. D. Cook, et al., Pharmaceutical Manufacturing International, pages 49-53 (1992); K. Takeuchi, Laboratory Practice, September issue (1992); U.S. Pat. No. 4,568,649 (1986); which are incorporated by reference herein. Reactions are performed in 96-well plates. The assay is conducted in 100 μl volume with 5.4 mM HEPE (pH 7.5), 11.7 mM KCl, 4.5 mM MgCl2, 0.36 mg/ml BSA, and 90 nM ^3H-dTTP. Assays are run with and without CHAPS, (3-[(3-cholamidopropyl)-dimethylammonio]-1-propane-sulfonate) at a final concentration of 2 mM. HCMV polymerase is diluted in enzyme dilution buffer containing 50% glycerol, 250 mM NaCl, 10 mM HEPES (pH 7.5), 100 μg/ml BSA, and 0.01% sodium azide. The HCMV polymerase, which is expressed in recombinant baculovirus-infected SF-9 cells and purified according to literature procedures, is added at 10% (or 10 μl) of the final reaction volume, i.e., 100 μl. Compounds are diluted in 50% DMSO and 10 μl are added to each well. Control wells contain an equivalent concentration of DMSO. Unless noted otherwise, reactions are initiated via the addition of 6 nM biotinylated poly(dA)-oligo(dT) template/primer to reaction mixtures containing the enzyme, substrate, and compounds of interest. Plates are incubated in a 25 C or 37 C H2O bath and terminated via the addition of 40 μl/reaction of 0.5 M EDTA (pH 8) per well. Reactions are terminated within the time-frame during which substrate incorporation is linear and varied depending upon the enzyme and conditions used, i.e., 30 min. for HCMV polymerase. Ten μl of streptavidin-SPA beads (20 mg/ml in PBS/10% glycerol) are added following termination of the reaction. Plates are incubated 10 min. at 37 ° C., then equilibrated to room temperature, and counted on a Packard Topcount. Linear regressions are performed and IC50's are calculated using computer software.
A modified version of the above HCMV polymerase assay is performed as described above, but with the following changes: Compounds are diluted in 100% DMSO until final dilution into assay buffer. In the previous assay, compounds are diluted in 50% DMSO. 4.5 mM dithiothreotol (DTT) is added to the polymerase buffer.

[3] = target: HSV polymerase (Human herpesvirus 1, UniProt P04293); experiment: biochemical; details: read-out: polymerase IC50 (μM) HSV
Sequence of HSV polymerase (P04293 whole entry): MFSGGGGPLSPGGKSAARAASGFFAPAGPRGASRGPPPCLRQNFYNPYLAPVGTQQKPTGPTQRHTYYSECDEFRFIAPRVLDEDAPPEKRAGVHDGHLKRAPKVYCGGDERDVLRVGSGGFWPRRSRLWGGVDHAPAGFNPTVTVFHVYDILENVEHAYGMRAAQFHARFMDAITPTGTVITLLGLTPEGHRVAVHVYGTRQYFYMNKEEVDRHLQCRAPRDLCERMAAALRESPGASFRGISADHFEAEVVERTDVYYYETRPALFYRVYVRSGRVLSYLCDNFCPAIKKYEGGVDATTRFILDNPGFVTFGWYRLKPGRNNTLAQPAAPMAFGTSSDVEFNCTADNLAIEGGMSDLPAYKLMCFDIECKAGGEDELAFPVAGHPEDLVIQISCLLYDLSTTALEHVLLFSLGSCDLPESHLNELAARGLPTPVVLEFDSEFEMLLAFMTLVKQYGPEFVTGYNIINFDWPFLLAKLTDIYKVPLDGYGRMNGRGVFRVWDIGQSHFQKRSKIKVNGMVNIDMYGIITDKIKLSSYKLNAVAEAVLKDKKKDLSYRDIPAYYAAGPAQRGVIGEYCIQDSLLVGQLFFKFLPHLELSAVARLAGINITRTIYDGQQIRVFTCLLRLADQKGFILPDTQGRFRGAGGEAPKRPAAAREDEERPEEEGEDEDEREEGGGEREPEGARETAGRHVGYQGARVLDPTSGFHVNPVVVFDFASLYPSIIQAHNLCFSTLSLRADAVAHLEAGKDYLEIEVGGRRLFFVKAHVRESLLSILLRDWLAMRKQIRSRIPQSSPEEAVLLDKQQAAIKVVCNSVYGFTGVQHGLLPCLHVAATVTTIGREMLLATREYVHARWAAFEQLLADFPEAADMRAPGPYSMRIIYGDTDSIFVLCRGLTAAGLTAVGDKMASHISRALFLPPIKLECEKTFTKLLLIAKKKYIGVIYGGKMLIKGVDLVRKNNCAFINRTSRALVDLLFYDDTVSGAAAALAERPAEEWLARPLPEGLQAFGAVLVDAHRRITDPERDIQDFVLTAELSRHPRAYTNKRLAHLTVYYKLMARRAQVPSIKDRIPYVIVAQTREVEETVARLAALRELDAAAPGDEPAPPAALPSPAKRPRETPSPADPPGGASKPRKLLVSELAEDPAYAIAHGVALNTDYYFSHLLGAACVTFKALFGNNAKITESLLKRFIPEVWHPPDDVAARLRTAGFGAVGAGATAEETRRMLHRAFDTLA

[4] = read-out: polymerase IC50 (μM) VZV

Sequence of VZV polymerase (P09252 whole entry): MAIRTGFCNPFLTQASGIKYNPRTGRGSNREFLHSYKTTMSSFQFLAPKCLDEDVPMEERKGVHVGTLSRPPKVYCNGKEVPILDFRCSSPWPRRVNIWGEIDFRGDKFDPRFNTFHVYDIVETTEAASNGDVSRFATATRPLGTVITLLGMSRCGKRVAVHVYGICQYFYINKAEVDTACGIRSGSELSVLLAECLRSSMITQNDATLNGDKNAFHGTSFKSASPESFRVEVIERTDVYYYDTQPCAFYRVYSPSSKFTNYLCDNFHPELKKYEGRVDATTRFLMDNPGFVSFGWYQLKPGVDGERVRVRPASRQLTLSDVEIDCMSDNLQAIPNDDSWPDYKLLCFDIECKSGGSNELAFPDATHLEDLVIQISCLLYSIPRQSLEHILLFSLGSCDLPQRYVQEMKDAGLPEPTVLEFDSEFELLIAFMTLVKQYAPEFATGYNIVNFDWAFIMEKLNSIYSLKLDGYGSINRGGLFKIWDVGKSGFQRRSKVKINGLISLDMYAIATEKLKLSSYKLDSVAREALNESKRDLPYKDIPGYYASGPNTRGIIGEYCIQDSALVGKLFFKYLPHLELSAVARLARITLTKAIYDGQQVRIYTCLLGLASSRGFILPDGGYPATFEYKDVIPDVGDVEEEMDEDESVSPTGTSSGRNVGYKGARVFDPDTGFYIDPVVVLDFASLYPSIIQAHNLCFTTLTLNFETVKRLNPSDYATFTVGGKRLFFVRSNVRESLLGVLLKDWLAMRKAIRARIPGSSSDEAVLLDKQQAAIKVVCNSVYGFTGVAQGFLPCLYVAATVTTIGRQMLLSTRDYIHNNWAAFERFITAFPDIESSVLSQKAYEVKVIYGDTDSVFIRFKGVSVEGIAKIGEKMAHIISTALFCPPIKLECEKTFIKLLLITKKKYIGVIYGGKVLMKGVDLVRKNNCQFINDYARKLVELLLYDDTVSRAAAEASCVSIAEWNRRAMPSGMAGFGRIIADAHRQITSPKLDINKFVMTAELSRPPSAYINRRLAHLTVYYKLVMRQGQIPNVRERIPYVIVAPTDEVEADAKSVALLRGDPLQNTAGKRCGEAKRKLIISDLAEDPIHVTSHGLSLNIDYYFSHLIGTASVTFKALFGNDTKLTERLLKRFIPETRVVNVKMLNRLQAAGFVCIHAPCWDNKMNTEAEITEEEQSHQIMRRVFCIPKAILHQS

| Structure (SMILES) | IC50 [1, 4] | IC50 [2] | IC50 [3] | IC50 [1] | melting point |
| --- | --- | --- | --- | --- | --- |
| CCn1cc(C(=O)NCc2ccc(Cl)cc2)c(=O)c2cc(C#CCCO)sc21 [Example 15, N-(4-Chlorobenzyl)-7-ethyl-2-(4-hydroxy-1-butynyl)-4-oxo-4,7-dihydrothieno[2,3-b]pyridine-5-carboxamide] | 1.9 µM | 4.7 µM | 3.2 µM | – | – |
| Cn1cc(C(=O)NCc2ccc(Cl)cc2)c(=O)c2cc(CCCO)sc21 [Example 25, N-(4-Chlorobenzyl)-2-(3-hydroxypropyl)-7-methyl4-oxo-4,7-7dihydrothieno[2,3-b]pyridine-5-carboxamide] | – | 0.4 µM | 0.45 µM | 0.46 µM | – |
| O=C(O)Cn1cc(C(=O)NCc2ccc(Cl)cc2)c(=O)c2cc(C#CCO)sc21 [Example 19, 2-[5-{[(4-Chlorobenzyl)amino]carbonyl}-2-(3-hydroxy-1-propynyl)4-oxothieno[2,3-b]pyridin-7(4H)-yl]acetic Acid] | – | 0.86 µM | – | – | 230 to 235 °C (dec.) |
| Cn1cc(C(=O)NCc2ccc(F)cc2)c(=O)c2cc(CN3CCOCC3)sc21 [Example 45, N-(4-Fluorobenzyl)-7-methyl-2-(4-morpholinylmethyl)-4-oxo-4,7-dihydrothieno[2,3-b]pyridine-5-carboxamide] | – | 2.6 µM | – | – | 214 to 216 °C |
| O=C(NCc1ccc(Cl)cc1)c1cn(Cc2cccnc2)c2sc(CN3CCOCC3)cc2c1=O [Example 54, N-(4-Chlorobenzyl)-2-(4-morpholinylmethyl)-4-oxo-7-(3-pyridinylmethyl)-4,7-dihydrothieno[2,3-b]pyridine-5-carboxamide] | – | 3.2 µM | – | – | 214 to 215 °C |
| CCN(CC)CCn1cc(C(=O)NCc2ccc(Cl)cc2)c(=O)c2cc(C#CCO)sc21 [Example 18, N-(4-Chlorobenzyl)-7-[2-(diethylamino)ethyl]-2-(3hydroxy-1-propynyl)4-oxo4,7-dihydrothieno[2,3-b]pyridine-5-carboxamide hydrochloride] | 0.39 µM | 1.7 µM | 0.95 µM | – | – |
| CN(Cc1cc2c(=O)c(C(=O)NCc3ccc(Cl)cc3)cn(C)c2s1)CC(O)c1ccc(O)cc1 (centres unmarked) [Example 39, N-(4-Chlorohenzyl)-2-(((2-hydroxy-2-(4-hydroxyphenyl)ethyl)(methyl)amino)methyl)-7-methyl-4-oxo-4,7-dihydrothieno[2,3-b]pyridine-5-carboxamide] | – | < 0.31 µM | – | – | 187 °C |
| Cn1cc(C(=O)NCc2ccc(Cl)cc2)c(=O)c2cc(C(=O)N3CCOCC3)sc21 [Example 48, N-(4-Chlorobenzyl)-7-methyl-2-(4-morpholinyl-carbonyl)-4 dothieno[2,3-b]pyridine-5-carboxamide] | – | 19 µM | – | – | 244 to 245 °C (dec.) |
| O=C(NCc1ccc(Cl)cc1)c1cnc2sc(C#CCCO)cc2c1O [Example 7, N-(4-Chlorobenzyl)-4-hydroxy-2-(4-hydroxy-1-butynyl)thieno[2,3-b]pyridine-5-carboxamide] | – | 8 µM | – | – | 242 to 246 °C |
| O=C(NCc1ccc(Cl)cc1)c1cn(CCCc2ccccc2)c2sc(CN3CCOCC3)cc2c1=O [Example 51, N-(4-Chlorobenzyl)-2-(4-morpholinylmethyl)-4-oxo-7-(3-phenylpropyl)-4,7-dihydrothieno[2,3-b]pyridine-5-carboxamide] | – | 1.2 µM | – | – | 169 to 171 °C |
| CCn1cc(C(=O)NCc2ccc(Cl)cc2)c(=O)c2cc(C#CCO)sc21 [Example 14, N-(4-Chlorobenzyl)-7-ethyl-2-(3-hydroxy-1-propynyl)-4-oxo4,7-dihydrothieno[2,3-b]pyridine-5-carboxamide] | – | 1.8 µM | – | – | 217 to 219 °C |
| CCn1cc(C(=O)NCc2ccc(Cl)cc2)c(=O)c2cc(CN3CCOCC3)sc21 [Example 42, N-(4-Chlorobenzyl)-7-ethyl-2-(4-morpholinylmethyl)-4-oxo-4,7-dihydrothieno[2,3-b]pyridine-5-carboxamide] | – | 1.9 µM | – | – | 194 to 196 °C |
| CN(Cc1cc2c(=O)c(C(=O)NCc3ccc(Cl)cc3)cn(C)c2s1)CC(O)c1ccccc1 (centres unmarked) [Example 40, N-(4-Chlorobenzyl)-2-(((2-hydroxy-2-phenylethyl)(methyl)-amino)methyl)-7-methyl-4-oxo-4,7-dihydrothieno[2,3-b]pyridine-5-carboxamide] | – | < 0.31 µM | – | – | 184 to 187 °C |
| O=C(NCc1ccc(Cl)cc1)c1cnc2sc(S(=O)(=O)N3CCOCC3)cc2c1O [Example 3, N-(4-Chlorobenzyl)-4-hydroxy-2-(4-morpholinylsulfonyl)-thieno[2,3-b]pyridine-5-carboxamide] | – | 15.9 µM | – | – | > 300 °C |
| CCN(CC)CCn1cc(C(=O)NCc2ccc(Cl)cc2)c(=O)c2cc(CCCO)sc21 [Example 22, N-(4-Chlorobenzyl)-7-[2-(diethylamino)ethyl]-2-(3-hydroxypropyl)4-oxo4,7-dihydrothieno[2,3-b]pyridine-5-carboxamide Hydrorhloride] | – | 0.81 µM | – | – | 111 to 114 °C |
| Cn1cc(C(=O)NCc2ccc(Cl)cc2)c(=O)c2cc(C#CCO)sc21 [Example 24, N-(4-Chlorobenzyl)-2-(3-hydroxy-1-propynyl)-7-methyl-4-oxo-4,7-dihydrothieno[2,3-b]pyridine-5-carboxamide] | – | 1 µM | – | – | 206 to 208 °C |
| COC(=O)C(CC#Cc1cc2c(O)c(C(=O)NCc3ccc(Cl)cc3)cnc2s1)C(=O)OC [Example 10, Dimethyl 2-[3-(5-{[(4-Chlorobenzyl)amino]carbonyl}-4-hydroxythieno[2,3-b]pyridin-2-yl)-2-propynyl]malonate] | – | 34.3 µM | – | – | 197 to 198 °C |
| O=C(NCc1ccc(Cl)cc1)c1cn(CCO)c2sc(CCCO)cc2c1=O [Example 21, N-(4-Chlorobenzyl)-7-(2-hydroxyethyl)-2-(3-hydroxypropyl)4-oxo-4,7-dihydrothieno[2,3-b]pyridine-5-carboxamide] | – | < 0.78 µM | – | – | 174 to 178 °C |
| CCCn1cc(C(=O)NCc2ccc(Cl)cc2)c(=O)c2cc(CN3CCOCC3)sc21 [Example 43, N-(4-Chlorobenzyl)-2-(4-morpholinylmethyl)-4-oxo-7-propyl-4,7dihydrothieno[2,3-b]pyridine-5-carboxamide] | – | 1.9 µM | – | – | 174 to 176 °C |
| CCn1cc(C(=O)NCc2ccc(Cl)cc2)c(=O)c2cc(CCCCO)sc21 [Example 20, N-(4-Chlorobenzyl)-7-ethyl-2-(4-hydroxybutyl)4-oxo-4,7-dihydrothieno[2,3-b]pyridine-5-carboxamide] | – | 0.18 µM | – | – | 136 to 139 °C |
| CCn1cc(C(=O)NCc2ccc(Cl)cc2)c(=O)c2cc(CCCO)sc21 [Example 16, N-(4-Chlorobenzyl)-7-ethyl-2-(3-hydroxypropyl)-4-oxo-4,7-dihydrothieno [2,3-b] pyfidine-5-carboxamide] | – | 0.67 µM | – | – | 144 to 146 °C |
| O=C(NCc1ccc(Cl)cc1)c1cn(CCN2CCCC2)c2sc(CN3CCOCC3)cc2c1=O [Example 53, N-(4-Chlorobenzyl)-2-(4-morpholinylmethyl)-4-oxo-7-[2-(1-pyrrolidinyl)ethyl]-4,7-dihydrothieno[2,3-b]pyridine-5-carboxamide] | – | 4 µM | – | – | 178 to 180 °C |
| CCn1cc(C(=O)NCc2ccc(Cl)cc2)c(=O)c2cc(Br)sc21 [Example 11, 2-Bromo-N-(4-chlorobenzyl)-7-ethyl-4-oxo-4,7-dihydrothieno[2,3-b]pyridine-5-carboxamide] | – | 18.8 µM | – | – | 196 to 197 °C |
| Cn1cc(C(=O)NCc2ccc(Cl)cc2)c(=O)c2cc(CN3CCSCC3)sc21 [Example 38, N-(4-Chlorobenzyl)-7-methyl-4-oxo-2-(4-thiomorpholinyl-methyl)-4,7-dihydrothieno[2,3-b]pyridine-5-carboxamide] | – | 2.6 µM | – | – | 215 to 218 °C (dec.) |
| CCn1cc(C(=O)NCc2ccc(Cl)cc2)c(=O)c2cc(I)sc21 [Example 13, N-(4-Chlorobenzyl)-7-ethyl-2-iodo-4-oxo-4,7-dihydrothieno[2,3-b]pyridine-5-carboxamide] | – | 9 µM | – | – | 214 to 218 °C |
